From article PMC10471458 (BMB Reports, 2023)

Target: T1, Glutathione S-transferase omega 1 (mGstO1) (Mus musculus, UniProt O09131)
T1 sequence (O09131 2-240): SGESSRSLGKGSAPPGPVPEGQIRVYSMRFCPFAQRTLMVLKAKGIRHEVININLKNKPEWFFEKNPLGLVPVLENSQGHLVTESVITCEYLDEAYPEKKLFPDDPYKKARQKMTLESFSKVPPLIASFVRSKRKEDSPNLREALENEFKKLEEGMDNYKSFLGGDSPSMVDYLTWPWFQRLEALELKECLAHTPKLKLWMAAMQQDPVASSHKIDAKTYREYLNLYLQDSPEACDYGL
Assay type: biochemical

- spectrophotometric assay at 305 nm of 4-NPG reduction to 4-nitroacetophenone by: 10 U/mg
SMILES: N[C@@H](CCC(=O)N[C@@H](CSCC(=O)c1ccc([N+](=O)[O-])cc1)C(=O)NCC(=O)O)C(=O)O [4-NPG, 4-nitrophenacyl glutathione]
